Source: patent publication US9018244B2, “Benzopyran compounds, compositions and uses thereof” (Olema Pharmaceuticals, Inc., priority 2011, dated 2015)
“Also recorded” adds a separate entry of the source.

Tests used:
[1] = biological target: T1, estrogen receptor alpha (ERα) (Homo sapiens, UniProt P03372); experiment: ERα expression by immunoblot after anti-estrogen treatment; assay type: cell-based; settings: 100 nM anti-estrogen, 22-24 hours, serum-free medium; MCF-7 breast cells and ECC-1 endometrial cells
T1 construct: endogenous in cells
T1 sequence (P03372 1-595): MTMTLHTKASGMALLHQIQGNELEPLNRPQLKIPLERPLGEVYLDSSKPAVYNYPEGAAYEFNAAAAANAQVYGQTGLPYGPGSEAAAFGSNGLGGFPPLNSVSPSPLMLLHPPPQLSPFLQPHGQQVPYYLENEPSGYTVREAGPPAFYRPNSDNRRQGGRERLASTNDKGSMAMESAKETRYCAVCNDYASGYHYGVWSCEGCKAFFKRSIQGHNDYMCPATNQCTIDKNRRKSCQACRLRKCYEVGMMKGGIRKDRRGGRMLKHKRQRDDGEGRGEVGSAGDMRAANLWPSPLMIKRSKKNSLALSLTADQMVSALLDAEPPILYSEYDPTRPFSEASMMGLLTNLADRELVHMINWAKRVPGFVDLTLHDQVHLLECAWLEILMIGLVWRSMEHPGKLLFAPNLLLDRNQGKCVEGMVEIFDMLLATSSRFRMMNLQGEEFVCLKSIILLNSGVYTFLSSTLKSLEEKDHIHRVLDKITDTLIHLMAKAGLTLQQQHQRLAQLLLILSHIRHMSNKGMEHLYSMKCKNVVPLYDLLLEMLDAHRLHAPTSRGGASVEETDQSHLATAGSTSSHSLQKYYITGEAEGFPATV
Protocol: FIG. 12. […] A) ERα levels in breast cells after treatment with OP-1074 compared to treatment with model anti-estrogens. MCF-7 cells were treated with 100 nM anti-estrogen for 24 hours in serum-free medium and protein extracts immunoblotted with an antibody to ERα (D12, Santa Cruz Biotechnology, Santa Cruz, Calif.). Image is from a single representative experiment and number on top denotes the mean percent ERα expression relative to vehicle from quadruplicate treatments. B) OP-1038 induces degradation of ERα in both MCF-7 breast cells and ECC-1 endometrial cells.
ERα expression was detected in MCF-7 cell lysates treated with 100 nM anti-estrogens in serum-free medium for 22-24 hours and immunoblotted with an antibody specific to ERα as described in the legend to, and depicted in FIG. 12.

[2] = test system: E2-stimulated estrogen response element (ERE)-regulated reporter gene activity; experiment: ERE-tk109-Luc reporter gene assay in MCF-7 cells; assay type: cell-based, human; settings: 100 pM E2, 18-22 hours
Protocol: (§1) FIG. 10. […] A) OP-1074 had similar potency to model anti-estrogens in the ERE reporter gene assay. MCF-7 cells were transiently transfected with ERE-tk109-Luc and treated with anti-estrogens in hormone-depleted medium in the presence of 100 pM E2 for 22 hours. Results were from a single representative experiment and reported as the mean percent induction relative to E2 from triplicate treatments, with error bars representing SEM. […] Results were from a single representative experiment and reported as the mean percent induction relative to E2 from triplicate treatments, with error bars representing SEM. IC50's were calculated using the least squares fit method.
Compounds of invention are tested for their inhibitory activity of estrogen according to the assay methods described in Hodges-Gallagher, L., Valentine, C. V., El Bader, S. and Kushner, P. J. (2007) “Histone Deacetylase Inhibitors Enhance the Efficacy of Hormonal Therapy Agents on Breast Cancer Cells and Blocks Anti-estrogen-Driven Uterine Cell Proliferation” Breast Cancer Res Treat, November; 105(3):297-309. Specifically, an estrogen-responsive reporter gene (ERE-tk109-Luc) was transiently transfected into MCF-7 cells and treated with anti-estrogens in triplicate in the presence of 100 pM 17β-estradiol (E2) for 18-22 hours. Luciferase activity was normalized to activity of E2 alone and IC50's were calculated using the least squares fit method. This method is also described in legend for FIG. 10.

mouse uterus = experiment: Uterine wet weight in ovariectomized BALB/c mice; assay type: in vivo; settings: for Uterine wet weight, agonist mode (without E2): q.d. three days, 100 mg/ml OP-1038 p.o. in 0.5% CMC; for Uterine wet weight, antagonist mode (+E2): three days, co-treated with 0.1 μg/ml E2 sc
Protocol: FIG. 9. […] Uterine wet weight was measured at the end of three days after treating ovariectomized BALB/c mice q.d. with vehicle or one of the following treatments (10 mice per group): 50 mg/kg tamoxifen p.o. in 0.5% carboxymethylcellulose (CMC); 50 mg/kg fulvestrant sc in 5% ethanol; […] OP-1038 p.o. in 0.5% CMC. Half the animals in each group were co-treated with 0.1 μg/ml E2 sc in cottonseed oil-ethanol (95:5), or vehicle alone. Animal experiments were conducted at the University of California, San Francisco following institutional animal care and use committee protocols.

[3] = test system: human MCF-7 breast cancer cells; experiment: E2-stimulated proliferation of MCF-7 breast cancer cells; assay type: cell-based; settings: MCF-7 cells, 100 pM E2, 6-8 days
Protocol: as §1, with “11.” for “10.”, “inhibiting E2-stimulated proliferation of breast cells in vitro.” for “the ERE reporter gene assay.”, “were” for “were transiently transfected with ERE-tk109-Luc and”, “medium for 6-8 days” for “medium”, “E2. Proliferation was measured using Cyquant fluorescent DNA-binding dye (Invitrogen, Grand Island, N.Y.).” for “E2 for 22 hours.”
Proliferation in MCF-7 was measured using a fluorescent DNA binding dye 6-8 days after treatment in triplicate with anti-estrogens in the presence of 100 pM E2 and as described in the legend to, and depicted in FIG. 11.

Row | Structure (SMILES) | Degradation of ERα [1] | Antagonism of E2-stimulated ERE-regulated reporter gene activity [2] | Uterine wet weight, agonist mode (without E2) (mouse uterus) | Uterine wet weight, antagonist mode (+E2) (mouse uterus) | Antagonism of E2-stimulated proliferation [3]
1 | CC1=C(c2ccc(O)cc2)C(c2ccc(OCCN3CC[C@@H](C)C3)cc2)Oc2cc(O)ccc21 (stereo partly drawn) [OP-1038, 3-(4-hydroxyphenyl)-4-methyl-2-(4-{2-[(3R)-3-methylpyrrolidin-1-yl]ethoxy}phenyl)-2H-chromen-7-ol] | comparable to fulvestrant; also recorded: induce degradation | improved potency; also recorded: potent antagonists | not significantly different from control or fulvestrant | not different from fulvestrant | improved potency; also recorded: potent antagonists
2 | CC1=C(c2ccc(O)cc2)[C@H](c2ccc(OCCN3CC[C@@H](C)C3)cc2)Oc2cc(O)ccc21 [OP-1074, (2S)-3-(4-hydroxyphenyl)-4-methyl-2-(4-{2-[(3R)-3-methylpyrrolidin-1-yl]ethoxy}phenyl)-2H-chromen-7-ol] | comparable to fulvestrant; also recorded: induce degradation | improved potency; also recorded: potent antagonists | essentially pure anti-estrogen | complete anti-estrogen | improved potency; also recorded: potent antagonists
